Earlier results on 1 compound are cited in patent US9024067B2, “Process for preparing carboxylic acid amides useful in the treatment of muscular disorders” (Canbex Therapeutics Limited, priority 2009, dated 2015).

The data set has as its system spasticity in CREAE mice. The settings on record: initial studies (WO2005/080316).

Structures are written as SMILES.

On to `CC(CO)NC(=O)c1cccc(/C=C\CCCC(=O)N(C)C)c1` (stereo not shown) [VSN-16], for which the effect on spasticity result is reported as “marked effect on spasticity”.
